Key:
L. major amastigotes = L. major amastigotes within J774 cells, parasite survival; format: cell-based
Protocol: To distinguish between leishmaniostatic and leishmanicidal effects, a time course survival curve was generated for J774 cultures infected with L. major.
Amastigotes were generated by infecting J774 murine macrophages. Infections were carried after seeding cells in 8-well Labtek chambers (Thermo Physic Scientific, Rochester N.Y.) at a concentration of 5×10^4 cells/well. To avoid multiplication, cells were incubated with mitomycin C at a concentration of 0.8 μg/ml for 16 h. Infective-stage promastigotes (metacyclics) of L. major were isolated from stationary cultures (4-5 day-old) by Ficoll enrichment, added to macrophage cultures (5 promastigotes: 1 cell) and kept overnight at 37° C. in the presence of 5% CO2 and DMEM with 10% FCS. Sixteen hours later, non-internalized promastigotes were then washed and replaced by culture medium containing the drug. Forty-eight hours later, wells were detached from the slides, stained with Diff-Quick (Dade Behring, Newark, Del.) and counted under light microscope. Parasite burden was determined by observation under light microscopy (1000×) as the number of amastigotes per one hundred J774 cells. Percentage of survival of amastigotes and MIC50 were calculated as above.

L. major promastigotes = experiment: L. major promastigote drug treatment, parasite survival after 48 h; format: cell-based
Protocol: The effect of PZA was first investigated with promastigotes of L. major. PZA was diluted in medium and added to cultures. After 48 h, parasite multiplication was determined by counting parasites in culture. […] Incubation of L. major with 1 μg/ml amphotericin B (as a positive control) caused 100% mortality of promastigotes and 90% of amastigotes.
Mid-log phase (day 3 of culture) L. major promastigotes were employed. Parasite concentration was adjusted to 10^6 promastigotes/ml and seeded into 96-well plates in a volume of 100 μl (final concentration, 10^5 promastigotes/well). PZA was tested in triplicate in a concentration gradient from 1,000-0.5 μg/ml and added to the wells containing the parasite in a volume of 100 μl. A negative control was included with three wells containing only parasites and medium. The positive control consisted of amphotericin B (1 μg/ml). This concentration was previously employed by us because this concentration is equivalent to drug concentrations achieved in human plasma. After 48 h of incubation at 26° C., 10 μL of each well was diluted in 90 μL of the vital colorant (trypan blue in PBS) and the parasites were quantified in a Neubauer chamber. Data was normalized as percentage of survival compared to untreated controls. The Lethal Dose 50 (LD50) was extrapolated from the graph as the concentration of the products that inhibited the parasitic growth at 50% of the values of the negative control.

uninfected J774 cells = format: cell-based
Protocol: The potential cytotoxicity of PZA toward the mammalian cell line was determined by co-incubation of PZA with uninfected J774 cells for 48 h (10^4 cells/well) in 96-well culture plates. […] At 200 μg/ml, the compound started to show signs of toxicity, resulting in mortality of 25% of the cell monolayer. […] The control drug amphotericin B caused 5% mortality of the cell monolayer at the concentration tested (1 μg/ml).
J774 cell viability following incubation with PZA was also determined. Cells were seeded onto 8-well Labtek chambers as above and incubated with different concentrations of PZA (up to 1 mg/ml) for 48 h, stained with Diff-Quick and counted under light microscope. The percentage of viable cells was determined after quantifying the number of cells present per field (in 25 fields, ca. 500 cells). Percentage of survival and MIC50 were calculated as above.

J774 cells = experiment: Cytokine (ELISA) and nitric oxide (Griess test) production in J774 cells; format: cell-based, murine; conditions: amphotericin B at the doses tested (0.1-1 μg/ml)
Protocol: The ability of J774 cells to produce cytokines in response to infection and/or treatment was also determined. Cells were infected, treated or activated as described above. The amount of the proinflammatory cytokines IL-12 and TNF-α (implicated in Thl response and parasite killing), as well as the repressive cytokine IL-10, was determined by ELISA in the culture supernatants. The level of nitric oxide was also determined in the same supernatants. PZA treatment alone increased cytokine production, especially IL-12 and TNF-α and NO release. […] Finally, to test the specificity of the immune activation by PZA, we determined the effect that amphotericin B treatment had on activation and cytokine expression by J774 cells.
J774 cells or bone marrow-derived cells were seeded onto 24-well plates at a concentration of 5×10^5 cells/ml. Twenty-four hours later, PZA was added to the wells at different concentrations in the absence or presence of L. major (1:5 parasite ratio). In some experiments, J774 cells were treated with amphotericin B (0.1, 0.5, or 1 μg/ml). Two control groups were also included in this experiment: a positive control of activation consisting in a group of uninfected cells treated with 100 ng/ml LPS and 10 IU IFN-γ as a positive control of activation, and a negative control of activation, consisting in uninfected, untreated cells. Cell cultures were maintained overnight, and then cultured for an additional 6 h with brefeldin A (10 μg/ml), harvested by scraping and fixed in 2% paraformaldehyde. Prior to staining, cells were incubated with an anti-Fc III/II receptor and 10% normal mouse serum (NMS) in PBS containing 0.1% BSA, 0.01% NaN3. Cells were permeabilized with saponin and stained for the surface markers CD80 (clone 16-10A1), CD86 (clone GL1), MHCI (clone 28-14-8), MHCII (clone M5/114.15.2) and for the cytokines IL-12p40/p70 (clone C17.8) and IL-10 (clone JESS-16E3). Incubations were carried out for 30 min on ice. All antibodies were purchased from BD Biosciences or eBioscience. For each sample, at least 50,000 cells were analyzed. The data were collected and analyzed using CELLQuest software and a FACScalibur flow cytometer (Becton Dickinson, San Jose, Calif.).

SMILES | MIC50 reduced relative to PZA (L. major amastigotes; L. major amastigotes within J774 cells) [fold] | MIC50 for PZA analogs (L. major amastigotes; L. major amastigotes within J774 cells (Table Ia)) [μM] | mortality of promastigotes (L. major promastigotes; 1 μg/ml amphotericin B) [%] | percentage of survival compared to untreated control (L. major promastigotes; promastigote, Amphotericin B 1 μg/ml, 48 h) [%] | mortality of amastigotes (L. major amastigotes; 1 μg/ml amphotericin B) [%] | percentage of survival compared to untreated control (L. major amastigotes; amastigote in J774, Amphotericin B 1 μg/ml, 48 h) [%] | elimination of parasites from macrophage cultures (L. major amastigotes; amphotericin B 0.1 μg/ml, infected cells) | mortality of the cell monolayer (uninfected J774 cells; amphotericin B 1 μg/ml) [%] | percentage of survival compared to untreated control (uninfected J774 cells; uninfected J774 cells, Amphotericin B 1 μg/ml, 48 h) [%] | activation and cytokine expression of J774 cells (J774 cells)
NC(=O)c1cnc(F)cn1 [5-Fl PZA] | 100 | 0.08 | – | – | – | – | – | – | – | –
C[C@@H]1[C@H](O)[C@@H](C)/C=C/C=C/C=C/C=C/C=C/C=C/C=C/[C@H](O[C@@H]2O[C@H](C)[C@@H](O)[C@H](N)[C@@H]2O)C[C@@H]2O[C@](O)(C[C@@H](O)C[C@@H](O)[C@H](O)CC[C@@H](O)C[C@@H](O)CC(=O)O[C@H]1C)C[C@H](O)[C@H]2C(=O)O [Amphotericin B, amphotericin B] | – | – | 100 | 0 | 90 | 10 ± 5 | total elimination of parasites | 5 | 95 ± 16 | did not result in activation
